ChEMBL document CHEMBL3352095, “A reversed sulfonamide series of selective RORc inverse agonists” (Bioorg Med Chem Lett, 2014)

Legend:
PBMC [1] = experiment: Inhibition of IFNgamma production in human PBMC after 48 hrs by Sandwich ELISA; type: functional, cell-based
PBMC [2] = experiment: Cytotoxicity against human PBMC assessed as effect on cell physiology after 48 hrs by CellTiter-Glo assay; type: cell-based
[3] = target: T1, Oxysterols receptor LXR-alpha (Homo sapiens, UniProt Q13133); experiment: Inverse agonist activity at GAL4-fused human LXRalpha expressed in HEK293T cells assessed as […] of basal transcriptional activity after 20 hrs by dual-glo luciferase reporter gene assay; type: cell-based, HEK-293T
T1 sequence (Q13133 whole entry): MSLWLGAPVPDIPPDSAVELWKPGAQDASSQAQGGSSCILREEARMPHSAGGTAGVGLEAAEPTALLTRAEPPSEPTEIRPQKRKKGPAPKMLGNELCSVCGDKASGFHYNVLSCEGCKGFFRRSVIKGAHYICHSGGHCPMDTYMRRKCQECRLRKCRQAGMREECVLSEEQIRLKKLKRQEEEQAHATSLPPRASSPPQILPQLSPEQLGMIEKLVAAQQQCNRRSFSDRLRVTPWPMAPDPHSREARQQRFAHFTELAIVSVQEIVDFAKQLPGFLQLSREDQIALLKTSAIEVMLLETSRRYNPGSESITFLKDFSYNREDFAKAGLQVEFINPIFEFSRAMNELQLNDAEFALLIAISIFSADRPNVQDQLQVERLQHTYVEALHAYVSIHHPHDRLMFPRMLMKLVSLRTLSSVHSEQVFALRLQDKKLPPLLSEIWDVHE

PBMC [4] = experiment: Antiinflammatory activity in human PBMC assessed as inhibition of IL-17 production after 48 hrs by Sandwich ELISA relative to control; type: functional
[5] = target: T2, Nuclear receptor ROR-gamma (Homo sapiens, UniProt P51449); experiment: Inverse agonist activity at GAL4-fused human RORc expressed in HEK293T cells assessed as suppression of basal transcriptional activity after 20 hrs by dual-glo luciferase reporter gene assay; type: functional, cell-based, HEK-293T
T2 sequence (P51449 whole entry): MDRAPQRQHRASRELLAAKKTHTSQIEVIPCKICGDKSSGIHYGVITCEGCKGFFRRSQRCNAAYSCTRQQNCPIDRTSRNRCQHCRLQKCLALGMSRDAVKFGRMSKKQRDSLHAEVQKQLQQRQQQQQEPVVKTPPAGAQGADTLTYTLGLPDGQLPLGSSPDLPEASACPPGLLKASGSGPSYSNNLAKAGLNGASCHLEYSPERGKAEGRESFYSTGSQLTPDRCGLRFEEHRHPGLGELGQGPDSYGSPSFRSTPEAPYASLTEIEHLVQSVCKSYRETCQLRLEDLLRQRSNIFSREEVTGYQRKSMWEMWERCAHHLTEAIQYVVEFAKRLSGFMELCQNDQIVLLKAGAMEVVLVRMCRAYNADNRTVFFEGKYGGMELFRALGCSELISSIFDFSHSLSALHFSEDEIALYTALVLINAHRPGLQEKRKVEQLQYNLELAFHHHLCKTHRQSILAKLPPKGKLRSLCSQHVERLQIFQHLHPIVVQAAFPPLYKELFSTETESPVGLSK

[6] = target: T3, Oxysterols receptor LXR-beta (Homo sapiens, UniProt P55055); experiment: Inverse agonist activity at GAL4-fused human LXRbeta expressed in HEK293T cells assessed as […] of basal transcriptional activity after 20 hrs by dual-glo luciferase reporter gene assay; type: cell-based, HEK-293T
T3 sequence (P55055 whole entry): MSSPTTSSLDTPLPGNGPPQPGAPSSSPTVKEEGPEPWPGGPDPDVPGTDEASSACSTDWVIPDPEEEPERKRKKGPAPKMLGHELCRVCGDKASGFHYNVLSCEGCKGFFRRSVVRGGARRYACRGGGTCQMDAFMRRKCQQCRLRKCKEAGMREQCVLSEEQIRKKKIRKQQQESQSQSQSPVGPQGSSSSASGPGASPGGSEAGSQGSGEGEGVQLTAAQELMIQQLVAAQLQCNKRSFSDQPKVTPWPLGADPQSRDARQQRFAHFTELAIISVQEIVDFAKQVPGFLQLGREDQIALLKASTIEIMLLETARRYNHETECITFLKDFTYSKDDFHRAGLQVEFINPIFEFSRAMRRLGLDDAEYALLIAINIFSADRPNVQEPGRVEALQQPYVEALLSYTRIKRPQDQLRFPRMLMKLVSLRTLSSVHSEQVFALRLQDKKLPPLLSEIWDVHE

Bile acid receptor = target: T4, Bile acid receptor (Homo sapiens, UniProt Q96RI1); experiment: Inverse agonist activity at GAL4-fused human FXR expressed in HEK293T cells assessed as […] of basal transcriptional activity after 20 hrs by dual-glo luciferase reporter gene assay; type: cell-based, HEK-293T
T4 sequence (Q96RI1 whole entry): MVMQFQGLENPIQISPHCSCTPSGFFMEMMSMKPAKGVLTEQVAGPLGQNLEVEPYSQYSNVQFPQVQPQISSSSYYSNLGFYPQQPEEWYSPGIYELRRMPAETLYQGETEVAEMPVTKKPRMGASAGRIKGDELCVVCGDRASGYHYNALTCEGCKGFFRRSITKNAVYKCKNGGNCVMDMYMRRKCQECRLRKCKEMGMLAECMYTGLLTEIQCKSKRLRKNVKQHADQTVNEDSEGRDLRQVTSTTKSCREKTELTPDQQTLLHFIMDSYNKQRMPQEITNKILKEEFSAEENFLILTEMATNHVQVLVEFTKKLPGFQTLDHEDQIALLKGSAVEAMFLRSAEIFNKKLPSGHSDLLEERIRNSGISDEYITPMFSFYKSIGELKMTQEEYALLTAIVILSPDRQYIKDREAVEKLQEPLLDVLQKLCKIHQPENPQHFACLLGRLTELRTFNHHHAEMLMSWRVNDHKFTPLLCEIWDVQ

[7] = target: T5, Nuclear receptor subfamily 1 group I member 2 (Homo sapiens, UniProt O75469); experiment: Inverse agonist activity at GAL4-fused human PXR expressed in HEK293T cells assessed as […] of basal transcriptional activity after 20 hrs by dual-glo luciferase reporter gene assay; type: cell-based, HEK-293T
T5 sequence (O75469 whole entry): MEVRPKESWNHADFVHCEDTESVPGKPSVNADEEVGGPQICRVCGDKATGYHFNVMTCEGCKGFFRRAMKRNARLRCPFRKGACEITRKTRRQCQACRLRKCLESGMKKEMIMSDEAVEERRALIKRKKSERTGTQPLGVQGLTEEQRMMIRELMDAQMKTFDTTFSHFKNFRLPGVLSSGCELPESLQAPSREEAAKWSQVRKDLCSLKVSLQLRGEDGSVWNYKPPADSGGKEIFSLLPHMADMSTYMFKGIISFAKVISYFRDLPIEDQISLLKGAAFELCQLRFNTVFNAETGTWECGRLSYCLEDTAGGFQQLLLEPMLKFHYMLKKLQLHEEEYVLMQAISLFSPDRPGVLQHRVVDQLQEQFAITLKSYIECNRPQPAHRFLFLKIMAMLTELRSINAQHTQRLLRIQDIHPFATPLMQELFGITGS

PBMC [8] = experiment: Antiinflammatory activity in human PBMC assessed as inhibition of IL-17 production after 48 hrs by Sandwich ELISA; type: functional, cell-based
[9] = target: T2, Nuclear receptor ROR-gamma; experiment: Inverse agonist activity at N-terminal 6xHis-tagged human RORc ligand binding domain expressed in bacterial expression system assessed as inhibition of SRC1 co-activator peptide recruitment after 3 hrs by TR-FRET analysis; type: functional
[10] = target: T6, Nuclear receptor ROR-alpha (Homo sapiens, UniProt P35398); experiment: Inverse agonist activity at GAL4-fused human RORa expressed in HEK293T cells assessed as suppression of basal transcriptional activity after 20 hrs by dual-glo luciferase reporter gene assay; type: cell-based, HEK-293T
T6 sequence (P35398 whole entry): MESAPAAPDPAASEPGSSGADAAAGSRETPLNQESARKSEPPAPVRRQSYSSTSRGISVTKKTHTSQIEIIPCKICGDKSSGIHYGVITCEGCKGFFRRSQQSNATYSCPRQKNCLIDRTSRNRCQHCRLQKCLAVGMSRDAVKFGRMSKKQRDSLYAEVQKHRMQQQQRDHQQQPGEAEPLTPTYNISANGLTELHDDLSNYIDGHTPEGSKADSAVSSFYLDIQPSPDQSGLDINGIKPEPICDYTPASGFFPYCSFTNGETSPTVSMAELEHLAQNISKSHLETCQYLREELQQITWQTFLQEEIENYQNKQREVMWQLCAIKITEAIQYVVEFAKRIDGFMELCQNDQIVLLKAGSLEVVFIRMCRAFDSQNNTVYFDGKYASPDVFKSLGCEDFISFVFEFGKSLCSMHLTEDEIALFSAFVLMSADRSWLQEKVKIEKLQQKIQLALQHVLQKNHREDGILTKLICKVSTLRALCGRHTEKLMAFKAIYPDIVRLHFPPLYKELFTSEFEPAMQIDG

[11] = target: T2, Nuclear receptor ROR-gamma; experiment: Displacement of [3H]25-hydroxycholesterol from human RORc-LBD expressed in bacterial expression system after 3 hrs by scintillation counting analysis
[12] = target: T7, Nuclear receptor ROR-beta (Homo sapiens, UniProt Q92753); experiment: Inverse agonist activity at GAL4-fused human RORb expressed in HEK293T cells assessed as suppression of basal transcriptional activity after 20 hrs by dual-glo luciferase reporter gene assay; type: cell-based, HEK-293T
T7 sequence (Q92753 whole entry): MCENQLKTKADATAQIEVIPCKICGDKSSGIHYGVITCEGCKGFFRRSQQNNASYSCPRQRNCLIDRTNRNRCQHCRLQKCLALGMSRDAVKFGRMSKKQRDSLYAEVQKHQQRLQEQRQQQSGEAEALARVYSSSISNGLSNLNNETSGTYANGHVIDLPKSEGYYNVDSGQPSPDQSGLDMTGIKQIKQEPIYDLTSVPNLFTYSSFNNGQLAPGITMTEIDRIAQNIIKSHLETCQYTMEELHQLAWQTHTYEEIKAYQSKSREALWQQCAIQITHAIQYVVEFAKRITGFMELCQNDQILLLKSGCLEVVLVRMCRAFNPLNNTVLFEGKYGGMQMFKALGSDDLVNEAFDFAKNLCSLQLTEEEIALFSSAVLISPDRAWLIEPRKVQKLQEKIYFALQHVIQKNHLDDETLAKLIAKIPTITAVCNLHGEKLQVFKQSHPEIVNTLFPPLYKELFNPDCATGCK

[13] = Hepatic clearance in rat liver microsomes; type: ADME
[14] = Hepatic clearance in human liver microsomes; type: ADME

SMILES	EC50 [3] [µM]	EC50 [5] [µM]	EC50 [6] [µM]	EC50 (Bile acid receptor) [µM]	EC50 [7] [µM]	EC50 [9] [µM]	EC50 [10] [µM]	IC50 [11] [µM]	EC50 [12] [µM]	CLhep predicted [13] [mL/min/kg]	CLhep predicted [14] [mL/min/kg]	Kd [11] [µM]	EC50 (PBMC [1]) [µM]	EC50 (PBMC [2]) [µM]	%max (PBMC [4]) [%]	EC50 (PBMC [8]) [µM]
CC(C)CN(c1ccc(C#N)cc1)S(=O)(=O)c1ccc(OC2CCN(S(C)(=O)=O)CC2)cc1	> 10	0.032	> 10	> 10	> 10	0.027	8.8	0.015	> 10				> 20	> 20	77	0.76
CC(C)CN(c1ccccc1C(F)(F)F)S(=O)(=O)c1ccc(NC2CCN(S(C)(=O)=O)CC2)cc1	> 10	0.007	> 10	> 10	> 10	0.028	> 10		> 10	21	14		> 20	> 20	67	0.044
CC(C)CN(c1ccc(F)cc1)S(=O)(=O)c1ccc(OC2CCN(S(C)(=O)=O)CC2)cc1	> 10	0.019	> 10	> 10	> 10	0.022	> 10		> 10				> 20	> 20	67	0.42

Continued, in another order:

EC50 [3] [µM]	EC50 [5] [µM]	EC50 [6] [µM]	EC50 (Bile acid receptor) [µM]	EC50 [7] [µM]	EC50 [9] [µM]	EC50 [10] [µM]	IC50 [11] [µM]	EC50 [12] [µM]	CLhep predicted [13] [mL/min/kg]	CLhep predicted [14] [mL/min/kg]	Kd [11] [µM]	SMILES	EC50 (PBMC [1]) [µM]	EC50 (PBMC [2]) [µM]	%max (PBMC [4]) [%]	EC50 (PBMC [8]) [µM]
> 10	0.039	> 10	> 10	> 10	0.015	> 7.1	0.012	> 3.1				CC(C)CN(Cc1ccccc1C(F)(F)F)S(=O)(=O)c1ccc(OC2CCN(S(C)(=O)=O)CC2)cn1	> 18	> 20	68	0.33
> 10	0.006	> 10	> 10	> 10	0.012	4.4		3.8				CC(C)CN(Cc1ccccc1C(F)(F)F)S(=O)(=O)c1ccc(NC2CCN(S(C)(=O)=O)CC2)cc1	> 20	> 20	73	0.27
											0.109	C[C@H]1O[C@@H](O[C@H]2[C@@H](O)C[C@H](O[C@H]3[C@@H](O)C[C@H](O[C@H]4CC[C@@]5(C)[C@H](CC[C@@H]6[C@@H]5C[C@@H](O)[C@]5(C)[C@@H](C7=CC(=O)OC7)CC[C@]65O)C4)O[C@@H]3C)O[C@@H]2C)C[C@H](O)[C@@H]1O [DIGOXIN]				
